Drawing on BindingDB's records for doi:10.1021/jm991008q (1999), this text covers Ki for three compounds.

The target in assay [1] is Ornithine carbamoyltransferase (Streptococcus/Enterococcus faecalis). Nature of the assay: Binding affinity against ornithine transcarbamoylase (OTC) produced by Streptococcus faecalis The buffer taken for this study is 50 mM maleate, 0.5 mM EDTA at pH 6.0.
For assay [2] the target is unchanged. In words: Binding affinity against ornithine transcarbamoylase (OTC) produced by Streptococcus faecalis The buffer taken for this study is 50 mM Tris.HCl, 0.5 mM EDTA at pH 8.0.
The target is the same in assay [3]. In words: Binding affinity against ornithine transcarbamoylase (OTC) produced by Streptococcus faecalis The buffer taken for this study is 50 mM Tris.HCl, 0.5 mM EDTA at pH 7.0.

Structures are written as SMILES.

For the compound `N[C@@H](CCCNCP(=O)(O)CP(=O)(O)O)C(=O)O` [2-Amino-5-[(hydroxy-phosphonomethyl-phosphinoylmethyl)-amino]-pentanoic acid], the inhibitory constant (Ki) in assay [1] is 660 µM; in assay [2], 1900 µM; in assay [3] it was 750 µM.
For `CC(C)(C)OC(=O)N[C@@H](CCCNCP(=O)(O)CP(=O)(O)O)C(=O)O` [(2S)-2-[(tert-butoxycarbonyl)amino]-5-[({[(hydroxyphosphinato)methyl]phosphinato}methyl)ammonio]pentanoate], the Ki is more than 20000 µM in assay [1], 2000 µM in assay [2] and 1000 µM in assay [3].
Taken in the same sequence, the figures for `N[C@@H](CCNCP(=O)(O)CP(=O)(O)O)C(=O)O` [(2S)-2-ammonio-4-[({[(hydroxyphosphinato)methyl]phosphinato}methyl)ammonio]butanoate] were more than 20000 µM, 3200 µM and 2300 µM.

For orientation: Ki means a dissociation constant, usually derived from enzyme kinetics or from competition with a known ligand. Read a high Ki as lower affinity.
